Laboratory results published in patent US7087021B2, “Methods of screening for genes and agents affecting cardiac function” (priority 2001, dated 2006).

Tested on: Drosophila heart
Experiment: Effects of anesthesia on heart rate
Format: in vivo, Drosophila melanogaster
Conditions: for effect of anesthesia on heart rate (in words): anesthetized Drosophila
From the text: […] The flies are removed from the vial as soon as they are immobile.
A more preferred aspect the microscope is a Nikon Diaphot-TMD inverted microscope, with Nomarski (DIC) optics (without analyzer) and a 10×(N.A. 0.25) objective. Preferably, images are obtained by closing the field diaphragm, so that the light-beam is concentrated on the first ventricle of the fly's heart, and the intensity of the light-beam is increased to the maximum. Most preferably, the flies are positioned on their backs, approximately perpendicular to the light path, and fixed in this position by mounting the spread wings on a glass slide with double-stick tape. Images of the first cardiac ventricle are recorded using a Sony DXC-101 video camera on VHS tape, or using a similar recording apparatus, and the heart rate is measured from slow-motion replays. End-diastolic and end-systolic dimensions are measured on still images at the mid-point between the two major transversal tracheal tubes passing over the first cardiac ventricle. The images can also be analyzed by appropriate image analysis software. In certain aspects of the present invention semi-automated digital image processing is used to measure heart rate and its variation directly from video signals recorded in a single fly or multiple flies. Automated detection allows parameters such as heart rate variability to be detected in a single fly. […] For each fly 2-second video sequences (60 frames each) 10 times consecutively are acquired. […] After applying a low pass filter to reduce noise in the time-space signal, heart rate is estimated by automated counting of the peaks in the signal. […] An average and a standard deviation of the repetitions in the same fly, for example (i.e. about 10 repetitions) are obtained and the coefficient of variation is calculated (Armitage P, Berry G. Statistical Methods in Medical Research. 3rd ed. Oxford: Blackwell Scientific; 1994).
CO2 the most commonly employed anesthetic for Drosophila.

SMILES	effect of anesthesia on heart rate (in words)	resumption of heart beat after cessation of gas exposure (n=10)	heart rate immediately after anesthesia (immediately after ether anesthesia, n=5)	heart rate after 30–40 min when leg movements began to return (same flies after 30–40 min, n=5, p=0.001)	heart rate immediately after anesthesia (older flies, 48 days, n=7, first value)	heart rate after recovery under the same conditions (older flies, 48 days, n=7, second value)	heart rate immediately after anesthesia (young flies, 10 days, n=6, first value)	heart rate after recovery under the same conditions (young flies, 10 days, n=6, second value)
O=C=O [CO2]	cardiac arrest within a few seconds	20 to 30 s						
CCOCC [Ethyl-ether]	depress heart rate		120±19 beats per minute	248±11 beats per minute				
CCN(CC)CC [triethylamine]	not cause significant changes in heart rate				213±6 beats per minute	211±11 beats per minute	283±6 beats per minute	282±4 beats per minute
